Results as given in patent US20100063020A1, “ORAL PHARMACEUTICAL FORMULATIONS AND METHODS FOR PRODUCING AND USING SAME” (priority 2004, published 2010).
Values joined by “and” are separate entries in the source; they are usually repeats but may differ in a detail not shown here. Equal values may be shown once. Read-outs that look alike come from different tables or passages of the source.

Assays:
[1] = Solubility of 17-AAG in organic solvents suitable for oral administration; format: physicochemical
Text: In other embodiments, pharmaceutical acceptable co-solvents may be added to the phospholipid formulation to further enhance the solubility of the ansamycins. Many suitable co-solvents which are known in the art may be used. […] The resulted formulation can then be combined with any combinations of the general excipients: fillers, glidants, lubricants, disintegrants, binders, solubilizers to form the various oral compositions.

[2] = Mouse serum pharmacokinetics of low melt 17-AAG in phospholipids; format: in vivo; details: Balb/C mice; for 17-AG AUCobs / 17-AG Cmax: metabolite 17-AG
Method: Blood was collected at predetermined intervals and the serum was isolated.
(§1) Six to 8 week old Balb/C mice were obtained from Harlan Sprague Dawley (Indianapolis, Ind.). The mice were maintained in sterilized filter topped cages or ventilated caging in a room with a 12 h light/12 h dark photoperiod at temperature of 21-23° C. and a relative humidity of 50±5%. Irradiated pelleted food (Harlan Teklad #7912) and autoclaved deionized water were provided ad libitum. Experiments were carried out under institutional guidelines for the proper and humane use of animals in research established by the Institute for Laboratory Animal Research (ILAR).
Drug solutions were prepared and the concentrations were adjusted so that mice received a dose of 2-15 ml/kg administered intravenously (I.V.) as a bolus, orally, or intra-peritoneally (I.P.). […] In I.V. studies blood was sampled at 1, 5, 15, 30, 90 and 120 min. In oral and I.P. studies blood was sampled at 5, 15, 30, 90, 180 minutes and in some cases up to 240 minutes. Blood was collected in capillary tubes, transferred to microcentrifuge tubes, allowed to clot and centrifuged at 14,000 g for 10 minutes at 4° C. to obtain serum.

[3] = Mouse serum pharmacokinetics of low melt 17-AAG in PEG-Tween; format: in vivo; details: Balb/C mice, PO 40 mg/kg
Method: as §1, with “Dawley,” for “Dawley”, “12-h light/12-h” for “12 h light/12 h”
Drug solutions were prepared and the concentrations were adjusted so that mice received a dose of 2-15 ml/kg administered intravenously (I.V.) as a bolus, orally, or intra-peritoneally (I.P.). In I.V. studies blood was sampled at 1, 5, 15, 30, 90 and 120 min. In oral and I.P. studies blood was sampled at 5, 15, 30, 90, 180 minutes and in some cases up to 240 minutes. Blood was collected in capillary tubes, transferred to microcentrifuge tubes, allowed to clot and centrifuged at 14,000 g for 10 minutes at 4° C. to obtain serum.

[4] = aqueous reconstituted lyophilized preparation containing sucrose; cited from earlier work
[5] = Oral bioavailability of prototype 17-AAG solid dosage form (capsule) in female rats; format: in vivo, Sprague-Dawley rats; details: rat; for 17-AAG AUC(0-6)^b: oral capsule (17-AAG 33%, Neusilin 64%, SLS 3%), AUC estimated from 0 to 8 hrs; for 17-AAG Cmax / 17-AG Cmax / Apparent Absolute Bioavailability: oral capsule; for 17-AG Cmax: metabolite 17-AG; for Apparent Absolute Bioavailability: vs intravenous 10 mg/kg of earlier study
Method: See, Example 18. […] The average dose administered was 14.3 mg/kg.
The average dose administered was 14.3 mg/kg. Blood samples (n=11) were collected via the jugular vein catheter prior to dosing and up to 8 hrs post dosing. The blood was allowed to clot at room temperature for approximately 20 minutes and then placed on ice until centrifugation at 10,000×G for 10 minutes. Serum was collected into polypropylene tubes and frozen at −80° C. until analysis.
% F=[(Oral AUC(0-6h)×I.V. Dose)/(I.V. AUC(0-6h)×Oral Dose)]*100

[6] = adult patients, cited from earlier work; for Cmax: read-out: Plasma Cmax
[7] = Effect of sodium lauryl sulfate on aqueous solubility of 17-AAG; format: physicochemical; details: pH 6.0, sodium lauryl sulfate
Text: Formulations of the invention may contain as much as 50% SLS.

Caco-2 cell monolayer = assay: in vitro; format: in vitro ADME
Text: The permeability of the pharmaceutical active ingredient across the gastrointestinal membrane may be estimated from it permeability across a Caco-2 cell monolayer using standard techniques (e.g. Chong S et al. Pharmaceutical Research 1997 14(12):1835-1837). The reference is hereby expressly incorporated by reference.
Propranolol was included in each assay as a high permeability control compound.

[8] = PO 40 mg/kg, lipid complex, low melt form
[9] = 13.6-15.1 mg/kg, individual animal

Compound `C=CCNC1=C2C[C@@H](C)C[C@H](OC)[C@H](O)[C@@H](C)/C=C(\C)[C@H](OC(N)=O)[C@@H](OC)/C=C\C=C(/C)C(=O)NC(=CC1=O)C2=O` [Compound 17-AAG, 17-allylamino-17-demethoxygeldanamycin] has a Solubility ([1]; solvent Glycerol) of 1.1 mg/mL, a Solubility ([1]; solvent Glycofurol) of 47.0 mg/mL and a Solubility ([1]; solvent Labrafil (Apricot Kernol Oil PEG-6 Esters)) of 2.4 mg/mL. It also gave a Solubility ([1]; solvent Labrasol (PEG-8 Caprylic/Capric Glycerides)) of 16.1 mg/mL, a Solubility ([1]; solvent Polyethylene glycol 400) of 12.9 mg/mL and a Solubility ([1]; solvent Propylene Carbonate) of 12.8 mg/mL. For the same compound, the Solubility ([1]; solvent Solutol HS15) was 12.4 mg/mL, the Solubility ([1]; solvent Transcutol HP (Ethoxydiglycol)) was 57.7 mg/mL and the Solubility ([1]; solvent Tween 80) was 33.8 mg/mL. The “17-AAG AUCobs” value ([2]; IP 40 mg/kg, vehicle PMSE) was 1596 µg·min/mL, the “17-AAG Cmax” value ([2]; IP 40 mg/kg, vehicle PMSE) was 11800 ng/mL and the “17-AG AUCobs” value ([2]; IP 40 mg/kg, vehicle PMSE) was 655 µg·min/mL. The “17-AG Cmax” value ([2]; IP 40 mg/kg, vehicle PMSE) was 5800 ng/mL, the “% F” value ([2]; IP 40 mg/kg, vehicle PMSE, relative to IV 40 mg/kg) was 91% and the “Total Absorption” value ([2]; IP 40 mg/kg, vehicle PMSE, 17-AAG and 17-AG relative to IV dose) was 96%. For the same compound, the “17-AAG AUCobs” value ([2]; IV 40 mg/kg, vehicle PET) was 1752 µg·min/mL, the “17-AAG Cmax” value ([2]; IV 40 mg/kg, vehicle PET) was 54500 ng/mL and the “17-AG AUCobs” value ([2]; IV 40 mg/kg, vehicle PET) was 595 µg·min/mL. For the same compound, the “17-AG Cmax” value ([2]; IV 40 mg/kg, vehicle PET) was 6200 ng/mL, the “17-AAG AUCobs” value [2, 8] was 953 µg·min/mL and the “17-AAG Cmax” value [2, 8] was 7500 ng/mL. For the same compound, the “17-AG AUCobs” value ([2]; PO 40 mg/kg, lipid complex) was 532 µg·min/mL, the “17-AG Cmax” value ([2]; PO 40 mg/kg, lipid complex) was 4500 ng/mL and the “17-AAG AUCobs” value ([3]; low melt form) was 433 µg·min/mL. The “17-AAG Cmax” value ([3]; low melt form) was 5000 ng/mL, the “17-AG AUCobs” value ([3]; metabolite 17-AG) was 163 µg·min/mL and the “17-AG Cmax” value ([3]; metabolite 17-AG) was 2400 ng/mL. The “% F” value ([3]; relative to IV 40 mg/kg) was 25%, the oral bioavailability [4] was 24% and the “17-AAG AUC(0-6)^b” value [5, 9] was 32 µg·min/mL and 19 µg·min/mL and 34 µg·min/mL. For the same compound, the “17-AAG AUC(0-6)^b” value ([5]; mean dose 14.3 mg/kg, mean n=3) was 28 µg·min/mL, the “17-AAG Cmax” value [5, 9] was 158 ng/mL and 117 ng/mL and 141 ng/mL and the “17-AG Cmax” value [5, 9] was 70 ng/mL and 61 ng/mL and 52 ng/mL. For the same compound, the “Apparent Absolute Bioavailability” value [5, 9] was 15% and 8% and 16%, the “17-AAG Cmax” value ([5]; mean dose 14.3 mg/kg, mean n=3) was 139 ± 21 ng/mL and the “17-AG Cmax” value ([5]; mean dose 14.3 mg/kg, mean n=3) was 61 ± 9 ng/mL. For the same compound, the “Apparent Absolute Bioavailability” value ([5]; mean dose 14.3 mg/kg, mean n=3) was 13±4%, the “maximum tolerated dose (MTD)” value ([6]; daily 1-hour infusion for 5 days every three weeks) was 40 mg/m^2 and the clearance ([6]; mean±SD) was 41.0 ± 13.5 L/h. The terminal half-life ([6]; mean±SD) was 2.5 ± 0.5 h, the Cmax ([6]; 40 mg/m^2) was 1860 ± 660 nM and the Cmax ([6]; 56 mg/m^2) was 3170 ± 1310 nM. For the same compound, the “aqueous solubility versus SLS concentration” value [7] was “increases linearly with increasing concentration of SLS” and the “permeability across the Caco-2 monolayer” value (Caco-2 cell monolayer) was 19 ×10⁻⁶ cm/s.
